Source: US8859819B2, “Sulphurated derivatives of resorcinol, preparation of same and cosmetic uses thereof” (Pierre Fabre Dermo-Cosmetique, priority 2009, dated 2014)
pIC50: −log10 of the molar value. Like-named read-outs stand apart in the source and are kept apart here.

Key:
[1] = Antioxidant capacity by chemiluminescence (Photochem Analytik Jena); conditions: for μg of sample for 1 μg of Trolox: Trolox equivalent, lower = stronger antioxidant
Protocol: This test is used to determine the antioxidant capacity of the molecules. It is a method that generates free radicals by a photochemical signal. The intensity of the oxidation is 1000 times greater than that obtained under normal conditions.
The detection is carried out by chemiluminescence. It enables the evaluation of hydrosoluble and liposoluble anti-oxidant molecules or extracts.
The results are expressed respectively in equivalent quantity of vitamin C or Trolox (6-hydroxy-2,5,7,8-tetramethylchroman-2-carboxylic acid). The sensitivity is of the order of a nanomole.
The antioxidant activity studied in this test represents the capacity to trap specifically superoxide anions by chemiluminescence.
The quantified results are expressed in Trolox equivalent (standard), i.e. in “μg of product for 1 μg of Trolox”. This signifies that a quantity×of sample is needed to obtain an activity equivalent to the activity detected for 1 μg of standard. It is an anti-oxidant power relative to a reference, which makes it possible to disregard the concentration tested.
The superoxide radical: 02^0− is generated by a photochemical reaction: L+hv (UV)+O2→L*O2→L^0++O2^0−
A part of the superoxide anions is quenched by the anti-oxidants. The remaining free radicals are quantified by chemiluminescence. L^0++O2^0−→N2+AP*^2−→AP^2−+hv (luminescence)

mushroom tyrosinase = target: T1, mushroom tyrosinase (Agaricus bisporus, UniProt C7FF04); assay: Tyrosinase inhibition test (in vitro acellular depigmenting activity); assay type: biochemical; conditions: for Tyrosinase depigmenting activity result: class symbol, assay from 250 to 150 μM, overall tyrosinase activity (MPMOg), L-tyrosine substrate
T1 construct: purchased Sigma T-3824
T1 sequence (C7FF04 1-392 limits assumed): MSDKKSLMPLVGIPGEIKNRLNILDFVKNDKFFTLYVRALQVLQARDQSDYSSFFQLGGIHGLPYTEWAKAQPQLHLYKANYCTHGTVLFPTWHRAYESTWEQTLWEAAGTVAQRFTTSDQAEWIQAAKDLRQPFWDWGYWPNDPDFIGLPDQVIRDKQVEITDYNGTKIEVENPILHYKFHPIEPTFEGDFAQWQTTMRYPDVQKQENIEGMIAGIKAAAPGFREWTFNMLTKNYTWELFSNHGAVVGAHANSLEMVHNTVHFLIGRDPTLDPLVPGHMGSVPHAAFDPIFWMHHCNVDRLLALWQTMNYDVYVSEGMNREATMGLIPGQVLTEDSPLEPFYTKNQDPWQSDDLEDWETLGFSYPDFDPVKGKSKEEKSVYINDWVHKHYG
Description: A) Determination of the Depigmenting Activity in an in vitro Acellular Test: Tyrosinase Inhibition Test)
This test is used to evaluate the depigmenting activity of the molecules tested. Tyrosinase is a limiting enzyme in melanogenesis.
It belongs to the family of oxydoreductases. It has in particular the function: monophenol monooxygenase (MPMO) and polyphenol oxidase (PPO).
It is synthesised at the level of the melanocytes. It is activated during its migration towards melanosome […]. It transforms tyrosine into DOPA then dopaquinone, which leads in fine to a polymerisation, i.e. a production of pigments (see diagram below).
The substrate: L-tyrosine, is transformed into L-DOPA by the monophenol mono oxygenase function which is transformed by the polyphenol oxidase function from tyrosinase into dopaquinone. The latter is going to self-oxidise into dopachrome which is measured by spectrophotometry at 490 nm.
More precisely, it is the overall tyrosinase activity (MPMOg) which is measured since it is the dopachrome in fine that is assayed. Thus the products tested on MPMOg (=measurement of the activity on PPO and MPMO) can cumulate the inhibition of the 2 functions, • inhibiting uniquely the MPMO function stricto sensus (transformation of tyrosine into DOPA) as a complement to the PPO test, • could inhibit PPO uniquely. General Experimental Conditions:

[2] = Protection of linoleic acid following a UV stress (Fenton conditions, MDA-TBA assay); parameters: % Protection Linoleic acid under UV/Fenton: concentration or dose not given beside the values; conditions: for % Protection Linoleic acid under UV/Fenton: UV + H2O2 + iron II
Description: D) Test of Protection of Linoleic Acid Following a UV Stress. Target: Protection of Linoleic Acid Under Fenton Conditions, UV Irradiation Linoleic acid belongs to the family of polyunsaturated fatty acids (PUFA) (AGPI). Sensitive to oxidation, linoleic acid is a favoured target for oxygenated free radicals (OFR) in biological media. When biological membranes are exposed to an oxidative stress, the components the most affected are the phospholipids constituted of PUFA and cholesterol. Their degradation leads to lipidic peroxidation and generally to destructuring. Lipidic peroxidation is a self-catalysing process which generally involves OFR. Lipidic peroxidation is in part responsible for skin ageing. The method employed to evaluate lipid peroxidation is based on the coupling of thiobarbituric acid (TBA) and secondary degradation products leading to coloured compounds detectable by spectrofluorometry. The essential secondary compound of final degradation is malondialdehyde, MDA. MDA is a carcinogenic and mutagenic aldehyde, it acts on proteins and DNA. The sample to be tested is placed in contact with linoleic acid in a weight/weight ratio. The sample undergoes an MED (Minimal Erythemal Dose) irradiation under Fenton conditions, namely in the presence of H202 and iron II in a solar simulator. Following irradiation, the reaction mixture is taken up in methanol and derivatised at 90° C. with TBA. Chromogene, the MDA-TBA complex, representative of the equimolar production of MDA is assayed by fluorimetry (excitation at 525 nm, emission at 549 nm). The results are expressed in fluorescence units, as a function of a MDA-TBA control range then expressed as concentration of the MDA-TBA complex. Then, the percentage of the starting MDA/linoleic acid (LA) ratio is determined. Then the percentage of protection of linoleic acid is determined. The product assay is expressed as weight/weight ratio, in other words in weight percentage with respect to the total quantity of linoleic acid. The maximal MDA level is determined by the condition UV+H202+iron II (F). The percentage of protection of linoleic acid represents: the % ratio of MDA under maximal stress conditions untreated over the % of MDA under stress conditions treated by the product.

B16-F10 cells = assay: Melanin assay test in B16-F10 cells; assay type: cell-based, murine; conditions: Mus musculus, read-out: B16 activity results -% at X μM
Protocol: B) Melanin Assay Test in B16-F10 Cells:
This involves a test of measuring the synthesis of melanin by colorimetric assay on a murine melanoma cell line: the B16-F10 line. This test makes it possible to evaluate the depigmenting power of active ingredients.
The B16-F10 cells are cultured in 96-well plates in DMEM medium supplemented with FCS (foetal calf serum), and incubated for 24 hours at 37° C., 5% CO2. The cells are then stimulated with 0.1 μM α-MSH (to stimulate the synthesis of melanin, the stimulation observed is around 150%) and treated for 72 hours with the active ingredients to be tested. Each concentration of active ingredient is tested at least in triplicate. The total melanin followed by the intracellular melanin dissolved in the lysis buffer are then assayed by absorbance reading at 405 nm. The total proteins are assayed in the lysate and the results are expressed in mg melanin/mg proteins. The percentage of activity is calculated as follows: […]
A negative value indicates an inhibition, whereas a positive value indicates an induction of the synthesis of melanin.
• B16-F10 cell line between P10 and P20 (murine melanocytes) (ATCC, CRL-6475)
Reagents: • DMEM without phenol red (GibcoBRL, 31053-028), 200 mM Glutamax-I Supplement (GibcoBRL, 35050-038), D-PBS (GibcoBRL, 14190-094), Foetal calf serum (Invitrogen, 10270-098), Trypsine-EDTA (GibcoBRL, 25300-054), NaOH (Sigma, S8045-500G), DMSO (Sigma, 471267-1L), Nle, Phe—Melanocyte Stimulating Hormone (Sigma, M-8764), Melanin (Sigma, M-0418), BCA-Copper (Sigma, B9643 and C2284), BSA (Sigma, P0914) C) Test for the Study of the Antioxidant Capacity by Chemiluminescence (Photochem Analytik Jena) Principle: […]

[3] = reference products of the interpretation scale
[4] = monophenol monooxygenase (MPMO) function, reference molecules for the test, read-out: IC 50 (MPMO)

Row | Structure (SMILES) | % Protection Linoleic acid under UV/Fenton [2] [%] | Tyrosinase depigmenting activity result (mushroom tyrosinase) | μg of sample for 1 μg of Trolox [1] | further results
1 | O=C(O)CCCC[C@@H]1CCSS1 (racemic) [Lipoic acid, reference compound] | – | – | – | Activity (antioxidant, interpretation scale) [1, 3]: None; μg of sample for 1 μg of Trolox (scale for interpreting the results, reference products) [1, 3]: NEGATIVE
2 | OC[C@H]1O[C@@H](Oc2ccc(O)cc2)[C@H](O)[C@@H](O)[C@@H]1O [Arbutin, reference compound] | – | – | – | inhibition at 88 µM (mushroom tyrosinase; at 88 μM, MPMO function): 57%
3 | Cc1cc(C(C)(C)C)c(O)c(C(C)(C)C)c1 [BHT, reference compound] | – | – | – | Activity (antioxidant, interpretation scale) [1, 3]: Good (3.01 to 50)
4 | N[C@@H](CS)C(=O)O [Cysteine, reference compound] | – | – | – | Activity (antioxidant, interpretation scale) [1, 3]: Medium (50.1 to 1000)
5 | Oc1ccc(Sc2ccc(O)cc2O)c(O)c1 [Example 1, 4,4′-thiodibenzene-1,3-diol] | 90 | + + + | 23 μg of sample for 1 μg of Trolox | inhibition at 61 µM (B16-F10 cells; B16-F10, 61 μM, α-MSH stimulated, 72 hours, negative value = inhibition): 50%
6 | CCCCOc1ccc(Sc2ccc(O)cc2O)c(O)c1 [Example 6, 4-(4-butoxy-2-hydroxyphenylthio)benzene-1,3-diol] | – | + + + | 14.9 μg of sample for 1 μg of Trolox | inhibition at 20 µM (B16-F10 cells; B16-F10, 72 h): 30%
7 | CCCCCCCCCCCC(=O)Oc1cc(O)ccc1Sc1ccc(O)cc1O [Example 14, 2-(2,4-dihydroxyphenylthio)-5-hydroxyphenyl dodecanoate] | – | + + + | 4.8 μg of sample for 1 μg of Trolox | inhibition at 48 µM (B16-F10 cells; B16-F10, 48 μM, α-MSH stimulated, 72 hours, negative value = inhibition): 50%
8 | CCCCCCCC(=O)Oc1ccc(Sc2ccc(O)cc2O)c(O)c1 [Example 16, 4-(2,4-dihydroxyphenylthio)-3-hydroxyphenyl octanoate] | 91 | + + + | 33.2 μg of sample for 1 μg of Trolox | –
9 | CCCCC/C=C\C/C=C\CCCCCCCC(=O)Oc1cc(O)ccc1Sc1ccc(O)cc1O [Example 21, (9Z, 12Z)-2-(2,4-dihydroxyphenylthio)-5-hydroxyphenyl octadeca-9,12-dienoate] | – | + + + | 5.9 μg of sample for 1 μg of Trolox | pIC50 (mushroom tyrosinase): 4.96; inhibition at 32 µM (B16-F10 cells; B16-F10, 32 μM, α-MSH stimulated, 72 hours, negative value = inhibition): 50%
10 | COc1ccc(/C=C/C(=O)Oc2cc(O)ccc2Sc2ccc(O)cc2O)cc1 [Example 22, (E)-2-(2,4-dihydroxyphenylthio)-5-hydroxyphenyl 3-(4-metoxyphenyl)acrylate] | 97 | + + + | 2.5 μg of sample for 1 μg of Trolox | –
11 | COc1ccc(/C=C/C(=O)Oc2cc(O)ccc2Sc2ccc(O)cc2O)cc1OC [Example 23, (E)-2-(2,4-dihydroxyphenylthio)-5-hydroxyphenyl 3-(3,4-dimethoxyphenyl)acrylate] | 96 | + + + | 2.8 μg of sample for 1 μg of Trolox | –
12 | CCCCCCCCCCCC(=O)Oc1cc(O)ccc1[S+]([O-])c1ccc(O)cc1O (centres unmarked) [Example 26, 2-(2,4-dihydroxyphenylsulphinyl)-5-hydroxyphenyl dodecanoate] | 80 | – | 69 μg of sample for 1 μg of Trolox | –
13 | CCCCC/C=C\C/C=C\CCCCCCCC(=O)Oc1cc(O)ccc1[S+]([O-])c1ccc(O)cc1O (centres unmarked) [Example 27, (9Z,12Z)-2-(2,4-dihydroxyphenylsulphinyl)-5-hydroxyphenyl octadeca-9,12-dienoate] | 78 | – | 40 μg of sample for 1 μg of Trolox | –
14 | CCCCCCCCCCOc1cc(O)ccc1[S+]([O-])c1ccc(O)cc1O (centres unmarked) [Example 28, 4-(2-(decyloxy)-4-hydroxyphenylsulphinyl)benzene-1,3-diol] | 94 | – | 28 μg of sample for 1 μg of Trolox | –
15 | O=S(=O)(c1ccc(O)cc1O)c1ccc(O)cc1O [Example 29, 4,4′-sulphonyldibenzene-1,3-diol] | 25 | – | 301 μg of sample for 1 μg of Trolox | μg of sample for 1 μg of Trolox ([1]; listed as resorcinol sulphone): 301 μg of sample for 1 μg of Trolo
16 | CCCCCCCCCCOc1cc(O)ccc1S(=O)(=O)c1ccc(O)cc1O [Example 30, 4-(2-(decyloxy)-4-hydroxyphenylsulphonyl)benzene-1,3-diol] | 34 | – | 147 μg of sample for 1 μg of Trolox | –
17 | Oc1ccc(O)cc1 [Hydroquinone, reference compound] | – | – | – | pIC50 (mushroom tyrosinase; [4]): 5.40 to 5.52
18 | N[C@@H](CCC(=O)N[C@@H](CS)C(=O)NCC(=O)O)C(=O)O [Reduced glutathion, reference compound] | – | – | – | % inhibition (PPO) (mushroom tyrosinase; at 25 μM, PPO function): 55%; pIC50 (mushroom tyrosinase; [4]): 5.70 to 6.00
19 | O=c1c(O)c(-c2ccc(O)c(O)c2)oc2cc(O)cc(O)c12 [quercetin, reference compound] | – | – | – | protection of linoleic acid ([2]; positive control at 0.1% (weight/weight of linoleic acid)): around 50%; protection of linoleic acid ([2]; positive control at 1% (weight/weight of linoleic acid)): almost total protection
